Laboratory results as given in PMC7076352 (Pharmaceutics, 2020).
Where “and” joins values, the source holds several entries; their conditions need not be identical. Identical values can stand only once. Like-named read-outs stand apart in the source and are kept apart here.

Key:
CYP2C9 [1] = conditions: read-out: Reported IC50; positive inhibitor of CYP2C9, literature ref 17,18; cited from earlier work
CYP2C9 [2] = assay: in vitro; conditions: microsomes
Description: (§1) (OHBUP-[D6]) and 5 nM 4′-hydroxydiclofenac-[^13C6] (OHDIC-[^13C6]) as internal standards (ISs). […]
(§2) standard addition experiments. Each group included four concentration levels. For the PK […]
(§3) The probe compounds, viz. […]
(§4) chosen after incubating all the recruited substrates. In order to assure the linear relationship […]
(§5) The incubation system was also optimized in terms of substrate concentrations. The substrates concentrations of […]

CYP1A2 [3] = target: T1, CYP1A2 (Rattus norvegicus, UniProt P04799); assay: In vitro cocktail CYP450 activity assay in rat liver microsomes, CYP1A2 (phenacetin probe)
T1 sequence (P04799 1-513): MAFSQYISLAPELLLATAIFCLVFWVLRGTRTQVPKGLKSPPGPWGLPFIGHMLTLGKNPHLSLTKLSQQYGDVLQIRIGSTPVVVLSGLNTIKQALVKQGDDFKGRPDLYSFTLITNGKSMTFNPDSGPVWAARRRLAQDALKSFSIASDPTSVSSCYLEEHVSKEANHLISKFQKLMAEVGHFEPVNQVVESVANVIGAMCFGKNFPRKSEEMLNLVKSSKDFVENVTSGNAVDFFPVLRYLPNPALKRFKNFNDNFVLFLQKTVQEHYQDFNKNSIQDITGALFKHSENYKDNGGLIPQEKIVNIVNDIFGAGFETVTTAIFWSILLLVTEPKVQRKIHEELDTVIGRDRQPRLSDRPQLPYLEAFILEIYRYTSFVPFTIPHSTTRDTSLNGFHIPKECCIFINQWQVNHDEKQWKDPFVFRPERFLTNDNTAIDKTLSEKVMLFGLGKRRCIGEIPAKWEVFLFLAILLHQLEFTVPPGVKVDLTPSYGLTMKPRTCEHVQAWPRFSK
Description: as §1, §2, §3, §4, §5

CYP1A2 [4] = target: T1, CYP1A2; conditions: read-out: Reported IC50; positive inhibitor of CYP1A2, literature ref 9, 10,11; cited from earlier work
CYP3A4 [5] = conditions: cited from earlier work
CYP3A4 [6] = assay: in vitro; conditions: for IC50: microsomes
Description: as §1, §2, §3, §4, §5

CYP2E1 = CYP2E1 (Rattus norvegicus, UniProt P05182); conditions: microsomes
CYP2C19 = assay: in vitro; conditions: microsomes
Description: as §1, §2, §3, §4, §5

CYP450s = assay: In vitro cocktail CYP450 activity assay, isozyme not given; format: in vitro ADME, SD rat
Description: (OHBUP-[D6]) and 5 nM 4′-hydroxydiclofenac-[^13C6] (OHDIC-[^13C6]) as internal standards (ISs).

CYP2D6 = assay: in vitro; conditions: microsomes
Description: as §1, §2, §3, §4, §5

CYP2B6 = assay: in vitro; conditions: microsomes
Description: as §1, §2, §3, §4, §5

Chain of CYP2E1 (P05182 whole entry): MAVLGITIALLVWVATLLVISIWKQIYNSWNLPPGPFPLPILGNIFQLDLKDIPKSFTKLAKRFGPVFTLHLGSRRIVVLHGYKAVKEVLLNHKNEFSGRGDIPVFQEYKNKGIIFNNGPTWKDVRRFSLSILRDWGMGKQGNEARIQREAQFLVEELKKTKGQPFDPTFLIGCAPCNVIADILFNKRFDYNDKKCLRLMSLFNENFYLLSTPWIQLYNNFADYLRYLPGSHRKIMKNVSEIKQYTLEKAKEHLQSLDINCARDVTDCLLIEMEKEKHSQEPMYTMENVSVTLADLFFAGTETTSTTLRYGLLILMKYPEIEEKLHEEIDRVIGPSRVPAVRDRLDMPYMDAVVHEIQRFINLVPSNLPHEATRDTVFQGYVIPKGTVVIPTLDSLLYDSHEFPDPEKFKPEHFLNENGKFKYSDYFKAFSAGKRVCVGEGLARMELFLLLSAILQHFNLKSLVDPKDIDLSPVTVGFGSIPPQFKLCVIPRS

| SMILES | IC50 (CYP2E1) | IC50 (CYP2C19) | IC50 (CYP1A2 [3]; microsomes) | IC50 (CYP450s) | IC50 (CYP2C9 [2]) | IC50 (CYP2D6) | IC50 (CYP3A4 [6]) | IC50 (CYP2B6) | also measured |
| --- | --- | --- | --- | --- | --- | --- | --- | --- | --- |
| Cc1nc2c([nH]1)c(=O)n(C)c(=O)n2Cc1ccco1 [FUR, furafylline] | – | – | – | – | – | – | – | – | IC50 (CYP1A2 [3]; Tested IC50): 0.597 ± 0.0514 µM; IC50 (CYP1A2 [4]): 1.3 µM and 1.76 to 13.9 µM |
| O=C(/C=C/c1ccc(O)cc1)C1=C(O)C2=C(O[C@H]([C@@H](O)[C@H](O)[C@H](O)CO)[C@H]2C2=C(O)/C(=C(O)/C=C/c3ccc(O)cc3)C(=O)C(O)([C@@H]3O[C@H](CO)[C@@H](O)[C@H](O)[C@H]3O)C2=O)C(O)([C@@H]2O[C@H](CO)[C@@H](O)[C@H](O)[C@H]2O)C1=O (stereo partly drawn) [A8, anhydroxysafflor yellow B] | 9.06 ± 1.85 µM | 111 ± 21.6 µM | > 200 µM | ≤ 15 µM | 1.21 ± 0.51 µM | 10.5 ± 1.11 µM | 34.4 ± 9.16 µM | > 200 µM | – |
| Cc1ncc2n1-c1ccc(Cl)cc1C(c1ccccc1F)=NC2 [MID, midazolam, reference compound] | – | – | – | – | – | – | – | – | Km (CYP3A4 [5]; read-out: Reported Km, probe substrate MID, CYP3A4, literature range ref 9): 1 to 14 µM; Km (CYP3A4 [6]; SD, rat, pH 7.4): 11 ± 1.51 µM |
| O=c1c(O[C@@H]2O[C@H](CO)[C@@H](O)[C@H](O)[C@H]2O)c(-c2ccc(O)cc2)oc2cc(O)c(O[C@@H]3O[C@H](CO)[C@@H](O)[C@H](O)[C@H]3O)c(O)c12 [A13, 6-hydroxykaempferol-3,6-di-O-glucoside] | 10.2 ± 0.65 µM | 48.9 ± 4.36 µM | 13.3 ± 2.27 µM | ≤ 15 µM | 93 ± 2.56 µM | 37.1 ± 8.85 µM | 58.5 ± 0.66 µM | 21 ± 2.31 µM | – |
